# Data reported in US20240050426A1, “TREATING VIRAL INFECTION WITH NMD INHIBITORS” (The Cleveland Clinic Foundation, priority 2021, published 2024).
# Legend:
# [1] = tested on: EBV transcripts in AGS-EBV cells; test: qRT-PCR of EBV transcript abundance in TPA-treated AGS-EBV cells with or without NMDI-1; type: cell-based; settings: 5 ng/mL TPA, 25 μM NMDI-1, 24 h
# From the text: FIG. 3. NMD controls the abundance of the polycistronic EBV transactivator transcripts and Rta protein expression. (A) Schematic of the EBV transactivator locus and the three transcripts expressed from this locus. Dashed lines mark spliced introns; CDS, coding sequence; Rp, EBV BRLF1 promoter; Zp, EBV BZLF1 promoter; pA, 3′-polyadenylation site; green bar, location of the Northern blotting probe used in F and I. (B) qRT-PCR analysis of BRLF1 transcripts in HEK293T cells transfected with 0, 20, 40, or 60 nM UPF1-targeting siRNA for 24 h, followed by transfection of a plasmid encoding the complete EBV transactivator locus (left panel, orange) or the BRLF1 coding sequence (CDS) only (right panel, blue), together with pcDNA3-nlsGFP (internal control) for 48 h. Data was normalized to GFP transcript levels to control for differences in transfection efficiency and presented as fold abundance relative to cells without si.UPF1 (−). (C) qRT-PCR analysis of BZLF1 transcripts in HEK293T cells transfected with increasing amounts of si.UPF1 for 24 has in (B), followed by transfection for 48 h with a plasmid encoding the EBV BZLF1 locus (left panel, orange) or the BZLF1 CDS (right panel, blue), together with pcDNA3-nlsGFP (internal control). […] See 10E Fig for quantification of effects. […] See S6F Fig for quantification of effects. […] See S6G Fig for quantification of effects. […]
# [2] = concentrations below those used in this study (25 μM); cited from earlier work
# BJAB cells = test: Cytotoxicity assessment, flow cytometry with 7-AAD and FITC-Annexin V; type: cell-based; settings: virus-negative BJAB cells, NMDI-1 between 5 and 50 μM, 48 h
# Experimental: (§1) FIG. 11. Cytotoxicity assessment of NMDI-1 treatment. (A, B) Flow cytometry analysis of virus-negative Burkitt lymphoma BJAB (A) or AGS (B) cells treated with 5 to 100 μM NMDI-1 or DMSO (‘0 μM’ NMDI-1) for 48 h and stained with 7-AAD and FITC-Annexin V. Data are presented as mean percentage of live (orange, Annexin V^−/7-AAD^−), apoptotic (blue, […]), and necrotic (red, Annexin V^+/7-AAD^+) cells for three biological replicates. 1 μM staurosporine treatment served as positive control for apoptosis/necrosis induction.
# (§2) AGS-EBV and HEK293T.rKSHV219 cells were seeded into 12-well plates and transfected with UPF1-specific or non-targeting control siRNAs for 24 to 120 h as indicated. As a positive control for reactivation, cells were treated with 2.5 mM NaB for 24 h. For microscopy, cells were incubated with Hoechst nucleic acid stain (1:2000, Invitrogen) in PBS for 5 min at RT, after which DAPI, as well as GFP or RFP were imaged using a fluorescence microscope (Omano). For flow cytometry analysis of GFP and RFP expression, cells were fixed in 4% paraformaldehyde in PBS and analyzed on an LSRFortessa (BD Biosciences). […] Data were analyzed using the Flowjo software (BD Biosciences).
# KSHV = KSHV reactivation: qRT-PCR of KSHV lytic transcripts after NMDI-1 treatment; type: cell-based; settings: 25 μM NMDI-1, 24 to 120 h
# Experimental: (§3) FIG. 4. Small-molecule NMD inhibitor NMDI-1 is a potent inducer of EBV and KSHV reactivation. (A-C) qRT-PCR analysis of EBV BZLF1, BRLF1, BMRF1, BLLF1b, and/or BcLF1 transcripts in EBV^+ AKBM (A), AGS-EBV (B), or LCL (C) cells treated with 25 μM NMDI-1 for 12 to 120 h, presented as fold expression relative to Mock-treated samples. (D-G) qRT-PCR analysis of Orf26, Orf50, Orf57, or Orf74 transcripts in KSHV^+ iSLK.rKSHV219 (D), HEK293T.rKSHV219 (E), BC3 (F), and BCBL1 (G) cells treated with 25 μM NMDI-1 for 24 to 120 h, presented as fold expression relative to Mock-treated samples. Data are representative of at least two (A, C) or three (B, D, E, F, G) independent experiments and presented as mean±SD of three biological replicates; ns, p>0.05, * p≤0.05, ** p≤0.01, *** p≤0.001.
# (§4) Total RNA was extracted from cells using the E.Z.N.A. HP Total RNA Isolation Kit (OMEGA Bio-Tek) according to the manufacturer's instructions. Reverse transcription and qRT—PCR were performed using equal amounts (50-500 ng) of the purified RNA and the SuperScript III Platinum One-Step qRT-PCR kit with ROX (Invitrogen) on a 7500 Fast Real-Time PCR Machine (Applied Biosystems). Premixed master mixes of TaqMan primers and probes for the detection of human transcripts were purchased from Applied Biosystems (18S) or IDT (GAPDH, UPF1, UPF2, UPF3a, UPF3b, SMG1, SMG5, SMG6, SMG7, STAU1, STAU2, GADD45B, PDRG1, RPL32, HPRT1, MAP3K14). […] Abundance of target genes was calculated by normalizing for cellular 18S or GAPDH using the Comparative CT (ΔΔCt) method. […]
# AGS cells = test: Cytotoxicity assessment, flow cytometry with 7-AAD and FITC-Annexin V; type: cell-based, human; settings: NMDI-1 between 5 and 50 μM, 48 h
# Experimental: as §1, §2
# EBV = EBV reactivation: qRT-PCR of EBV lytic gene expression after NMDI-1 treatment; type: cell-based; settings: 25 μM NMDI-1, qRT-PCR, relative to Mock
# Experimental: as §3, §4
smiles,measurement,setting,value
Cc1c2ccnc(Cl)c2c(C)c2c1[nH]c1ncccc12 [NMDI-1],BRLF1 transcript abundance compared to the mock-treated control,[1],significant increase in BRLF1 transcript abundance
same,"levels of other EBV transcripts (BNRF1, BcLF1, BLLF1)",[1],not significantly affected
same,toxicity in in vivo studies,[2],without apparent toxicity
same,cell viability,BJAB cells,did not or only minimally affect cell viability
same,"KSHV lytic transcripts Orf50, Orf26, Orf57 and/or Orf74",KSHV; KSHV+ BC3 PEL cells,induced potent expression of the KSHV lytic transcripts
same,"KSHV lytic transcripts Orf50, Orf26, Orf57 and/or Orf74",KSHV; KSHV+ BCBL1 PEL cells,induced potent expression of the KSHV lytic transcripts
same,"KSHV lytic transcripts Orf50, Orf26, Orf57 and/or Orf74",KSHV; KSHV+ HEK293T.rKSHV219 cells,induced potent expression of the KSHV lytic transcripts
same,"KSHV lytic transcripts Orf50, Orf26, Orf57 and/or Orf74",KSHV; KSHV+ iSLK.rKSHV219 cells,induced potent expression of the KSHV lytic transcripts
same,cell viability,AGS cells,did not or only minimally affect cell viability
same,EBV lytic gene expression,EBV; AGS-EBV cells,potent induction of lytic gene expression
same,"EBV lytic gene expression (BZLF1, BMRF1, BLLF1, BcLF1)",EBV; EBV+ AKBM cells,striking induction of EBV lytic gene expression
same,EBV lytic gene expression,EBV; EBV-transformed LCL cells from healthy-donor primary B cells,potent induction of lytic gene expression
